Results: US20130172246A1, “INSULIN GLARGINE VERSUS METFORMIN FOR THE FIRST-LINE TREATMENT OF EARLY TYPE-2 DIABETES” (priority 2011, published 2013)
Read-outs that look alike come from different tables or passages of the source.

What was measured:
type 2 diabetes patients [1] = assay: Laboratory analyses in the clinical trial: HbA1c, plasma glucose, lipids, hsCRP; assay type: in vivo, human; settings: for HbA1c level at end of study: after 36 weeks of treatment, GLA vs. MET n.s.; for HbA1c level at start of study: baseline value of the 'x to y' pair; for Triglycerides - change / HDL - change / HbA1c - change / LDL - change / Plasma glucose - change, 2 h after test meal / Plasma glucose - change, Fasting / Total chol. - change / hsCRP - change / Triglycerides - visit 8 / HDL - visit 8 / HbA1c - visit 8 / LDL - visit 8 / Plasma glucose - visit 8, 2 h after test meal / Plasma glucose - visit 8, Fasting / Total chol. - visit 8 / hsCRP - 8th visit: per protocol, mean (SD); for Triglycerides - change / HDL - change / HbA1c - change / LDL - change / Plasma glucose - change, 2 h after test meal / Plasma glucose - change, Fasting / Total chol. - change / hsCRP - change: change visit 1 to visit 8; for HDL - change / HbA1c - change / LDL - change / Plasma glucose - change, 2 h after test meal / Plasma glucose - change, Fasting / Total chol. - change / hsCRP - change / HDL - visit 8 / HbA1c - visit 8 / LDL - visit 8 / Plasma glucose - visit 8, 2 h after test meal / Plasma glucose - visit 8, Fasting / Total chol. - visit 8 / hsCRP - 8th visit: unit as in Table 4; for Triglycerides - visit 8 / HDL - visit 8 / HbA1c - visit 8 / LDL - visit 8 / Plasma glucose - visit 8, 2 h after test meal / Plasma glucose - visit 8, Fasting / Total chol. - visit 8 / hsCRP - 8th visit: week 36; for reduction in the FPG level (Δ): start to end of study (36 weeks), GLA vs. MET p<0.001
Method: Test meal: On the morning of the 2nd day of the CGM, there is a standardized test meal in the trial center. This test meal (TM) consists of 95 g of whole-wheat bread, 20 g of margarine, 25 g of fruit preserves, 25 g of cheese, 200 ml of orange juice, 200 ml of milk mix with banana, strawberry or cocoa with a total of 560 Kcal. Blood is taken from the patient prior to the TM (after night-time fasting period of at least 8 hours). […] From the 1st bite, the time is measured, and after 2 h have elapsed, a 2nd blood collection is performed. During the TM and during the two hours thereafter, the patient should move as little as possible so as not to falsify the monitoring.
Fasting blood is collected between 7 and 9 o'clock in the morning when the patient turns up at the center.
Laboratory analyses: The blood samples for the clinical laboratory tests are analyzed in the central laboratory and the local laboratories according to standardized conditions. The central laboratory and the local laboratories provide on request corresponding documentation (e.g., normal value tables, round-robin test certificates in accordance with RiLiBÄK (Guidelines of the German Medical Association)) for the trial master file. The central laboratory is responsible for the collection, transport and analysis of the blood samples and instructs the trial center on sample management.
The patients were treated with either metformin (MET, 1000 mg b.i.d. (n=3)) or insulin glargine (GLA) q.d. just before bedtime (n=3). […] At the start and end of the study, the HbA1c level and the plasma glucose, proinsulin and C-peptide concentrations were determined. […] All the patients received a standardized test meal on the second day of the continuous glucose monitoring for comparison of the interindividual postprandial (pp) glucose excursions.

type 2 diabetes patients [2] = assay: Hypoglycemic events and low interstitial glucose periods during CGM; assay type: in vivo, human; settings: early treatment with GLA vs. MET
Method: Below is a list of the various target parameters: • Protection of the β-cells by early insulin therapy • C-Peptide (fasting and 2 h pp after TM) • Proinsulin (fasting and 2 h pp after TM) • Glycemic variability: • Glycemic load • Standard deviation (SD), • MAGE • HbA1c • Anti-inflammatory action of insulin: • Biomarkers of subclinical inflammation (fasting and 2 h pp) • hsCRP, • PAI-1, • Leukocyte count • Back-up samples for determining • MMP9 • ADMA • Adiponectin • Effect on endothelial function • Endothelial function at ball of thumb using laser Doppler (O2C) • Effect on renal function • Microalbuminuria (albumin/creatinine ratio) • Serum creatinine • Risk of hypoglycemia • Hypoglycemic intervals (time<3 mmol glucose) during CGM over 48 hours (day 2+3 after TM) • Free fatty acids […]

type 2 diabetes patients [3] = assay: Pilot study with insulin glargine with a CGMS; assay type: in vivo, human; settings: compared to metformin
[4] = human, in vivo
Method: (§1) • Checking the inclusion/exclusion criteria • Physical examination • Measuring body weight, waist/hip measurement, blood pressure, pulse • Recording the change in concomitant medication and concomitant conditions • Recording AEs and SAEs • Applying the CGMS for up to 72 h, briefing and training the patient • Randomization: • Group A: Titrating insulin glargine to target level of fasting plasma glucose (5.6 mmol/l (100 mg/dl)) • Briefing and training the patients in insulin use (Depending on the organization, training measures can be implemented during the overall visit 1 a-c.) • Group B: 500 mg of metformin tid • Pregnancy test, if applicable. • Laser Doppler measurement; only at center 01 and 02
(§2) • Recording the change in concomitant medication • Recording AEs and SAEs • Physical examination • Measuring body weight, waist/hip measurement, blood pressure, pulse • Applying the CGMS for up to 72 h, briefing and training the patient • Drug accountability/compliance (registering the used-up medication) • Laser Doppler measurement, only at center 01 and 02

type 2 diabetes patients [5] = settings: background statement; cited from earlier work
type 2 diabetes patients [6] = settings: ORIGIN-CGMS substudy, cited from earlier work
type 2 diabetes patients [7] = settings: cited from earlier work
[8] = Body weight, BMI, abdominal and hip measurement in the clinical trial
Method: as §1, §2

[9] = per protocol, change visit 1 to visit 8, mean (SD), unit as in Table 4

Compound: Insulin glargine
- HbA1c level at end of study (type 2 diabetes patients [1]): 6.4%
- HbA1c level at start of study (type 2 diabetes patients [1]): 7.2%
- control of the fasting glucose level and of the overall glycemic situation (type 2 diabetes patients [1]; early treatment, compared to standard treatment with MET): more effective control
- Triglycerides - change (type 2 diabetes patients [1]): −0.2 (1.8) mmol/l
- HDL - change (type 2 diabetes patients [1]): 0.1 (0.2) mmol/l
- HbA1c - change (type 2 diabetes patients [1]): −0.8 (0.7) %
- LDL - change (type 2 diabetes patients [1]): −0.1 (0.7) mmol/l
- Plasma glucose - change, 2 h after test meal (type 2 diabetes patients [1]): −2.8 (3.2) mmol/l
- Plasma glucose - change, Fasting (type 2 diabetes patients [1]): −3.1 (2.5) mmol/l
- Total chol. - change (type 2 diabetes patients [1]): −0.04 (0.8) mmol/l
- hsCRP - change (type 2 diabetes patients [1]): 0.1 (3.0) mg/l
- Triglycerides - visit 8 (type 2 diabetes patients [1]): 2.2 (2.0) mmol/l
- HDL - visit 8 (type 2 diabetes patients [1]): 1.3 (0.3) mmol/l
- HbA1c - visit 8 (type 2 diabetes patients [1]): 6.4 (0.4) %
- LDL - visit 8 (type 2 diabetes patients [1]): 3.1 (0.8) mmol/l
- Plasma glucose - visit 8, 2 h after test meal (type 2 diabetes patients [1]): 8.3 (2.5) mmol/l
- Plasma glucose - visit 8, Fasting (type 2 diabetes patients [1]): 6.1 (1.1) mmol/l
- Total chol. - visit 8 (type 2 diabetes patients [1]): 5.2 (1.0) mmol/l
- hsCRP - 8th visit (type 2 diabetes patients [1]): 3.1 (2.9) mg/l
- reduction in the FPG level (Δ) (type 2 diabetes patients [1]): 3.1 ± 2.5 mmol/L
- number of hypoglycemic events (type 2 diabetes patients [2]): no rise in the number of hypoglycemic events
- control of postprandial hyperglycemia (type 2 diabetes patients [3]): improved control of postprandial hyperglycemia compared to metformin
- Abdomen - change [4]: 1.1 (3.7) cm
- Abdomen - visit 8 [4]: 104.3 (10.7) cm
- BMI - change [4]: −0.5 (1.3) kg/m^2
- BMI - visit 8 [4]: 29.9 (4.1) kg/m^2
- Hip - 8th visit [4]: 108.6 (9.4) cm
- Hip - change [4]: 1.6 (4.1) cm
- weight gained [4]: 1.5 ± 3.8 kg
- serious adverse reactions (type 2 diabetes patients [5]): without serious adverse reactions such as severe hypoglycemias
- stable HbA1c level achieved (type 2 diabetes patients [5]): around 6%
- difference in the AUC TM for BG vs. standard treatment (predominantly metformin therapy) (type 2 diabetes patients [6]): 15%
- difference in the AUC TM for BG vs. standard treatment (predominantly metformin therapy) (type 2 diabetes patients [6]; standard deviation 179): 127 mmol*120 min

Compound: CN(C)C(=N)N=C(N)N [Metformin]
- HbA1c level at end of study (type 2 diabetes patients [1]): 6.3%
- HbA1c level at start of study (type 2 diabetes patients [1]): 6.9%
- Triglycerides - change (type 2 diabetes patients [1]): −0.2 (1.1) mmol/l
- HDL - change (type 2 diabetes patients [1]): 0.1 (0.2) mmol/l
- HbA1c - change (type 2 diabetes patients [1]): −0.6 (0.4) %
- LDL - change (type 2 diabetes patients [1]): −0.03 (0.6) mmol/l
- Plasma glucose - change, 2 h after test meal (type 2 diabetes patients [1]): −1.6 (2.5) mmol/l
- Plasma glucose - change, Fasting (type 2 diabetes patients [1]): −1.4 (1.5) mmol/l
- Total chol. - change (type 2 diabetes patients [1]): −0.02 (0.7) mmol/l
- hsCRP - change (type 2 diabetes patients [1]): −0.2 (2.2) mg/l
- Triglycerides - visit 8 (type 2 diabetes patients [1]): 1.9 (0.8) mmol/l
- HDL - visit 8 (type 2 diabetes patients [1]): 1.3 (0.4) mmol/l
- HbA1c - visit 8 (type 2 diabetes patients [1]): 6.3 (0.3) %
- LDL - visit 8 (type 2 diabetes patients [1]): 3.1 (0.9) mmol/l
- Plasma glucose - visit 8, 2 h after test meal (type 2 diabetes patients [1]): 8.4 (2.1) mmol/l
- Plasma glucose - visit 8, Fasting (type 2 diabetes patients [1]): 7.2 (1.0) mmol/l
- Total chol. - visit 8 (type 2 diabetes patients [1]): 5.3 (1.0) mmol/l
- hsCRP - 8th visit (type 2 diabetes patients [1]): 3.1 (5.2) mg/l
- reduction in the FPG level (Δ) (type 2 diabetes patients [1]): 1.4 ± 1.5 mmol/L
- patients additionally receiving sulfonylureas or other combinations with oral antidiabetics (type 2 diabetes patients [7]; after one to two years, UK-PDS and DIG study): over 50%
- patients with stomach complaints, disturbances in appetite and, very rarely, allergies (type 2 diabetes patients [7]; background statement): approximately 10%
- cases in which not tolerated (type 2 diabetes patients [7]; reference [17]): approximately 15%
- Abdomen - visit 8 ([8]; abdominal circumference, per protocol, week 36, mean (SD), unit as in Table 4): 100.5 (13.7) cm
- Hip - 8th visit ([8]; hip measurement, per protocol, week 36, mean (SD), unit as in Table 4): 108.0 (11.6) cm
- weight loss ([8]; over the study, vs. GLA p<0.001): 3.0 ± 4.3 kg
- Abdomen - change [8, 9]: −2.0 (4.1) cm
- BMI - change [8, 9]: 1.0 (1.4) kg/m^2
- Hip - change [8, 9]: −1.6 (4.1) cm
- BMI - visit 8 ([8]; per protocol, week 36, mean (SD), unit as in Table 4): 29.3 (5.3) kg/m^2
